Literature values in PMC7153166 (Elektrophysiologie, 2018).

Experiments:
Type in all cases: cell-based
[1] = biological target: T1, P2X1-Rezeptor (Rattus norvegicus, UniProt P47824); test: two-electrode voltage clamp, Xenopus oocytes
T1 sequence (P47824 1-399): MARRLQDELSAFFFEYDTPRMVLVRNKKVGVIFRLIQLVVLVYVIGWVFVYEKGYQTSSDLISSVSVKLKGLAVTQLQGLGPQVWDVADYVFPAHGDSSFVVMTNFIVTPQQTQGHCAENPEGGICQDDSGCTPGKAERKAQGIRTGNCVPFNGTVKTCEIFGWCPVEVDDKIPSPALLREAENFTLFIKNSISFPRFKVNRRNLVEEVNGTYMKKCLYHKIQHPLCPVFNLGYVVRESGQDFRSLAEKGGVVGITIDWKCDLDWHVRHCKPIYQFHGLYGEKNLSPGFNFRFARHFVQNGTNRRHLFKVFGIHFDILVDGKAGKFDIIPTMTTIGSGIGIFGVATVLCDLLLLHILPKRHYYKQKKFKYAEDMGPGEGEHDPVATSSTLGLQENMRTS

[2] = biological target: T2, P2X2-Rezeptor (Rattus norvegicus, UniProt P49653); test: two-electrode voltage clamp, Xenopus oocytes; conditions: agonist
T2 sequence (P49653 1-472): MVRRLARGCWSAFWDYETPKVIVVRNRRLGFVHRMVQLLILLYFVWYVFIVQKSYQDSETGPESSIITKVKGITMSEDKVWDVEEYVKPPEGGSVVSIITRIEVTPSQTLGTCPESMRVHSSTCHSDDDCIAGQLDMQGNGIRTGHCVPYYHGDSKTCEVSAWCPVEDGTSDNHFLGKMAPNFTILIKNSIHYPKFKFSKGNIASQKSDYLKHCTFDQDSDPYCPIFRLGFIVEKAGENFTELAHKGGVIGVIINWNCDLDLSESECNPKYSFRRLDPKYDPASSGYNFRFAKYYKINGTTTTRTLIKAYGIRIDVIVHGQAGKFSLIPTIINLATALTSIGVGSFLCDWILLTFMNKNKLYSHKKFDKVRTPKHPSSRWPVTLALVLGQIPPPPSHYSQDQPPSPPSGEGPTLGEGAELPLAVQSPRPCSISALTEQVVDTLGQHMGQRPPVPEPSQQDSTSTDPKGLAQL

[3] = biological target: 3a-Protein (Severe acute respiratory syndrome-related coronavirus, UniProt P59632)
Chain of 3a-Protein (P59632 whole entry, looked up): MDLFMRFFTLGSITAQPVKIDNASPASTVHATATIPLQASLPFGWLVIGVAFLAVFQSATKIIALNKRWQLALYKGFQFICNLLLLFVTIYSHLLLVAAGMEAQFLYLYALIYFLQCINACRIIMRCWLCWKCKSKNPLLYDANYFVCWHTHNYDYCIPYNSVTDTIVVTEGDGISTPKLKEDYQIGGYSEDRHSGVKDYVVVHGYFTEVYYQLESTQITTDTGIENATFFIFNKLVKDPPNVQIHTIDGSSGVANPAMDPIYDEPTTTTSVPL

| SMILES | EC50 [1] [µM] | EC50 [2] [µM] | IC50 [3] [µM] |
| --- | --- | --- | --- |
| Nc1ncnc2c1ncn2[C@@H]1O[C@H](COP(=O)(O)OP(=O)(O)OP(=O)(O)O)[C@@H](O)[C@H]1O [ATP] | 0.6 | ~30 |  |
| Cc1cc(O)c2c(c1)C(=O)c1cc(O)cc(O)c1C2=O [Emodin, 1,3,8-Trihydroxcy-6-methylanthracen-9,10-dion] |  |  | 20 |
| O=c1c(O[C@@H]2O[C@@H](CO)[C@H](O)[C@H]2O)c(-c2ccc(O)cc2)oc2cc(O)cc(O)c12 [Juglanin] |  |  | ~2 |
